# Data: PMC9120017, “Inhibition mechanism of the chloride channel TMEM16A by the pore blocker 1PBC” (Nature Communications, 2022)
# Like-named read-outs stand apart in the source and are kept apart here.
# Target: T1, mouse TMEM16A mutant Y598A (Mus musculus, UniProt Q8BHY3, Y598A)
# T1 construct: expressed in transfected cells; host or cells: HEK293T
# T1 sequence (Q8BHY3 1-960 Y598A): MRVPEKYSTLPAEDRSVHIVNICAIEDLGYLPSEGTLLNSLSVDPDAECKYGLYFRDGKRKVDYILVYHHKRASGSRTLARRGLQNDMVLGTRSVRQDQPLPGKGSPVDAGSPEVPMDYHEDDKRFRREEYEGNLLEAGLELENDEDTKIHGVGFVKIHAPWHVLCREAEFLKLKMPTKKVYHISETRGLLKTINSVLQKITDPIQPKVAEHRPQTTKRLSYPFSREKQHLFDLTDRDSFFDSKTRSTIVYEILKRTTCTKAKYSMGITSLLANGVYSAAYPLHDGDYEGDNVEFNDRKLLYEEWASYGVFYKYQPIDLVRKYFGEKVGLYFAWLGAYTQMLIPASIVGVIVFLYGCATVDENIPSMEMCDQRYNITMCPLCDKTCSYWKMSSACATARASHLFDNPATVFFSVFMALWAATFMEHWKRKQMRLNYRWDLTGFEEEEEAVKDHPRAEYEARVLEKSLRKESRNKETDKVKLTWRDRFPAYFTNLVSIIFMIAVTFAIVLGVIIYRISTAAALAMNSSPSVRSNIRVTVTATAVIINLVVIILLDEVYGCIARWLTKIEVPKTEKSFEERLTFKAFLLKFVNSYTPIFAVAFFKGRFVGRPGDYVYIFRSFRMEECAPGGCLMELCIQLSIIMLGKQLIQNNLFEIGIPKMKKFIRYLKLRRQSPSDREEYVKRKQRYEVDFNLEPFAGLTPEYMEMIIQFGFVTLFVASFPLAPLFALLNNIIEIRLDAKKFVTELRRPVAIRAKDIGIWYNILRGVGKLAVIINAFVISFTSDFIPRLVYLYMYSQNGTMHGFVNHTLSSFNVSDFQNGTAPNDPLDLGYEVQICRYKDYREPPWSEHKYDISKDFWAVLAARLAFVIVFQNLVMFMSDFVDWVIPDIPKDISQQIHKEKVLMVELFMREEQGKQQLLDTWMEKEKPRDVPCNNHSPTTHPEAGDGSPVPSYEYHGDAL
# Assay: Inside-out patch recording of 1PBC block, mutant Y598A
# Format: cell-based
# Details: for IC50: 2 µM Ca2+; for remaining activity at 3 µM: 1PBC conc 3; for remaining activity at 3 µM / remaining activity at 10 µM / remaining activity at 30 µM: read-out: relative current in 1PBC (avr); for remaining activity at 10 µM: 1PBC conc 10; for remaining activity at 30 µM: 1PBC conc 30
# Experimental: HEK293T cells (ATCC CRL-1573) were maintained in Dulbecco’s modified Eagle’s medium (DMEM; Sigma-Aldrich) supplemented with 10 U ml^−1 penicillin, 0.1 mg ml^−1 streptomycin (Sigma-Aldrich), 2 mM L-glutamine (Sigma-Aldrich), and 10% FBS (Sigma-Aldrich) in a humidified atmosphere containing 5% CO2 at 37 °C. HEK293S GnTI^− cells (ATCC CRL-3022) were maintained in HyClone HyCell TransFx-H medium (GE Healthcare) supplemented with 10 U ml^−1 penicillin, 0.1 mg ml^−1 streptomycin, 4 mM L-glutamine, 0.15% poloxamer 188 (Sigma-Aldrich), and 1% FBS in an atmosphere containing 5% CO2 at 185 rpm at 37 °C. The ac splice variant of mouse TMEM16A (UniProt ID: Q8BHY3), mouse TMEM16B (UniProt ID: Q8CFW1), or mouse TMEM16F (UniProt ID: Q6P9J9) bearing a 3C cleavage site, a Venus YFP, a Myc tag, and a Streptavidin-binding peptide (SBP) downstream of the open reading frame in a modified pcDNA3.1 vector (Invitrogen) were used as described previously[21],[31]. Mutations were introduced using a modified QuikChange method[58] and were verified by sequencing.
# HEK293T cells were transfected with 3–4 μg DNA per 6 cm Petri dish using the calcium phosphate co-precipitation method and were used within 24–96 h after transfection. Recordings were performed on inside-out patches excised from HEK293T cells expressing the construct of interest. Patch pipettes were pulled from borosilicate glass capillaries (O.D. 1.5 mm, I.D. 0.86 mm, Sutter Instrument) and were fire-polished with a microforge (Narishige) before use. Pipette resistance was typically 3–8 MΩ when filled with the recording solutions detailed below. Seal resistance was typically 4 GΩ or higher. Voltage-clamp recordings were made using Axopatch 200B, Digidata 1550, and Clampex 10.7 (Molecular Devices). Analog signals were filtered with the in-built 4-pole Bessel filter at 10 kHz and were digitized at 20 kHz. Solution exchange was achieved using a gravity-fed system through a theta glass pipette mounted on an ultra-fast piezo-driven stepper (Siskiyou). […] All recordings were performed at 20 °C.
# A symmetrical ionic condition was used throughout. Stock solution with Ca^2+-EGTA contained 150 mM NaCl, 5.99 mM Ca(OH)2, 5 mM EGTA, and 10 mM HEPES at pH 7.40. Stock solution with EGTA contained 150 mM NaCl, 5 mM EGTA, and 10 mM HEPES at pH 7.40. Free Ca^2+ concentrations were adjusted by mixing the stock solutions at the required ratios calculated using the WEBMAXC program (http://web.stanford.edu/~cpatton/webmaxcS.htm). Patch pipettes were filled with the stock solution with Ca^2+-EGTA, which has a free Ca^2+ concentration of 1 mM. 1PBC (ChemBridge) stock was reconstituted in anhydrous DMSO (Sigma-Aldrich) at 100 mM and stored at −20 °C. Working solutions with 1PBC were prepared by serial dilution. Unless otherwise stated, experiments were performed at a saturating Ca^2+ concentration as shown in Supplementary Table 1 and the primary data were corrected for current rundown as described previously[21],[25].
# Concentration-response relations, obtained from the ratio of the I-V plots before and after the application of the blocker, were fitted to the Hill equation,1 I/Imax=1/1+IC50/[blocker]^h where I/Imax is the normalized current responses, IC50 defines the concentration at which inhibition is at its half-maximum, and h is the Hill coefficient.
smiles,measurement,setting,value
N#Cc1c(C(F)(F)F)cc(O)n2c1nc1ccccc12 [1PBC],IC50,0 mV,5 µM
same,remaining activity at 3 µM,0 mV,62.2%
same,remaining activity at 10 µM,0 mV,32.7%
same,remaining activity at 30 µM,0 mV,16.1%
same,normalised current (avr),"1PBC 3, V 0 mV",-0.0008127
same,normalised current (avr),"1PBC 3, V 20 mV",0.0806
same,normalised current (avr),"1PBC 3, V 40 mV",0.1479
same,normalised current (avr),"1PBC 3, V 60 mV",0.2094
same,normalised current (avr),"1PBC 3, V 80 mV",0.2692
same,normalised current (avr),"1PBC 3, V 100 mV",0.3374
same,normalised current (avr),"1PBC 3, V 120 mV",0.4035
same,normalised current (avr),"1PBC 3, V 140 mV",0.5334
same,normalised current (avr),"1PBC 3, V -20 mV",-0.0953
same,normalised current (avr),"1PBC 3, V -40 mV",-0.2038
same,normalised current (avr),"1PBC 3, V -60 mV",-0.3243
same,normalised current (avr),"1PBC 3, V -80 mV",-0.4624
same,normalised current (avr),"1PBC 3, V -100 mV",-0.5959
same,normalised current (avr),"1PBC 3, V -120 mV",-0.7447
same,normalised current (avr),"1PBC 3, V -140 mV",-0.8933
same,normalised current (avr),"1PBC 10, V 0 mV",-0.0004268
same,normalised current (avr),"1PBC 10, V 20 mV",0.04176
same,normalised current (avr),"1PBC 10, V 40 mV",0.07281
same,normalised current (avr),"1PBC 10, V 60 mV",0.101
same,normalised current (avr),"1PBC 10, V 80 mV",0.1339
same,normalised current (avr),"1PBC 10, V 100 mV",0.1691
same,normalised current (avr),"1PBC 10, V 120 mV",0.2139
same,normalised current (avr),"1PBC 10, V 140 mV",0.279
same,normalised current (avr),"1PBC 10, V -20 mV",-0.05063
same,normalised current (avr),"1PBC 10, V -40 mV",-0.1149
same,normalised current (avr),"1PBC 10, V -60 mV",-0.2039
same,normalised current (avr),"1PBC 10, V -80 mV",-0.3102
same,normalised current (avr),"1PBC 10, V -100 mV",-0.4329
same,normalised current (avr),"1PBC 10, V -120 mV",-0.5455
same,normalised current (avr),"1PBC 10, V -140 mV",-0.6513
same,normalised current (avr),"1PBC 30, V 0 mV",-0.0002099
same,normalised current (avr),"1PBC 30, V 20 mV",0.02319
same,normalised current (avr),"1PBC 30, V 40 mV",0.04085
same,normalised current (avr),"1PBC 30, V 60 mV",0.05628
same,normalised current (avr),"1PBC 30, V 80 mV",0.08124
same,normalised current (avr),"1PBC 30, V 100 mV",0.1064
same,normalised current (avr),"1PBC 30, V 120 mV",0.1384
same,normalised current (avr),"1PBC 30, V 140 mV",0.17
same,normalised current (avr),"1PBC 30, V -20 mV",-0.02219
same,normalised current (avr),"1PBC 30, V -40 mV",-0.05555
same,normalised current (avr),"1PBC 30, V -60 mV",-0.09343
same,normalised current (avr),"1PBC 30, V -80 mV",-0.1537
same,normalised current (avr),"1PBC 30, V -100 mV",-0.2141
same,normalised current (avr),"1PBC 30, V -120 mV",-0.2888
same,normalised current (avr),"1PBC 30, V -140 mV",-0.3717
same,IC50,20 mV,4.35 µM
same,remaining activity at 3 µM,20 mV,57.7%
same,remaining activity at 10 µM,20 mV,29.9%
same,remaining activity at 30 µM,20 mV,16.6%
same,IC50,40 mV,3.57 µM
same,remaining activity at 3 µM,40 mV,52.9%
same,remaining activity at 10 µM,40 mV,26.1%
same,remaining activity at 30 µM,40 mV,14.6%
same,IC50,60 mV,3.16 µM
same,remaining activity at 3 µM,60 mV,49.9%
same,remaining activity at 10 µM,60 mV,24.1%
